pEC50, pIC50: −log10 of the molar value.
Assays:
[1] = test system: MYC mRNA, MV4:11 (AML) or Raji (Burkitt's lymphoma) cells; assay: cMyc RNA quantification assay (QuantiGene); assay type: cell-based; settings: MV4:11 or Raji cells, 4 h, MYC mRNA normalized to DMSO
Experimental: cMyc RNA Quantification Assay (QuantiGene® Assay):
MV4:11 (AML) or Raji (Burkitt's lymphoma) cells were seeded in a 96-well plate and incubated in the presence of various concentrations of compounds for 4 h. Relative mRNA levels were quantitated by using QuantiGene 2.0 assay (Affymetrix) according to the manufacturer's recommendation. Signals were detected by using an Envision plate reader (Perkin-Elmer). Biological duplicates were averaged and normalized to vehicle (DMSO) control to calculate percent MYC mRNA levels.

[2] = test system: IL-6 secretion, THP-1 cells; assay: Cell-based IL-6 quantification assay (ELISA, Mesoscale) in LPS-stimulated THP-1 cells; settings: Homo sapiens, LPS 4 μg/mL, 16 h, ELISA value/CellTiter-Glo ratio
Experimental: Cell-Based IL-6 Quantification Assay (ELISA, Mesoscale Assay):
100,000 THP-1 cells were seeded in RPMI1640-10% FBS in 96-well plates. LPS (E. Coli Invitrogen) in RPMI-10% FBS at a final concentration of 4 μg/mL was added to the wells and the cells are then incubated in the presence of various concentrations of compounds for 16 h. Plates are spun ([…], 5 min), an aliquot of 25 uL supernatant is transferred in to an ELISA plate (Mesoscale technology, MSD) and the detection of IL-6 is performed using manufacturer's instructions. The amount of cells in each well is assessed using CellTiter-Glo® (Promega). The ratio of ELISA value/CellTiter-Glo value is used to calculate the percent of inhibition of IL-6 secretion.

BRD4(BD1) = molecular target: T1, BRD4(BD1) (Homo sapiens, UniProt O60885); assay: BRD4 AlphaLisa binding assay; settings: BRD4(BD1) 30 nM, biotinylated H4-tetraacetyl peptide 200 nM, read-out: AS IC50
T1 construct: His; made in house
Experimental: IC50 Measurements for Inhibitors Using BRD4 AlphaLisa Binding Assay
Specifically, in a 384 well ProxiPlate BRD4(BD1) (30 nM final) was combined with peptide (200 nM final) in 40 mM HEPES (pH 7.0), 40 mM NaCl, 1 mM DTT, 0.01% (w/v) BSA, and 0.008% (w/v) Brij-35 either in the presence of DMSO (final 1.2% DMSO) or compound dilution series in DMSO. After 20 minute incubation at room temperature Alpha streptavidin donor beads and AlphaLisa anti-Flag acceptor beads were added to a final concentration of 10 ug/mL each. After three hours equilibration plates were read on an Envision instrument and IC50s calculated using a four parameter non-linear curve fit.

Row | pIC50 [2] | pIC50 (BRD4(BD1)) | SMILES | pEC50 [1]
1 | 6.47 | 7.10 | Cc1noc2c1-c1ccc(-c3cnn(C)c3)cc1N(c1ccc(C#N)cc1)CC2CCO (stereo not drawn) [Compound 138, 4-(4-(2-hydroxyethyl)-1-methyl-8-(1-methyl-1H-pyrazol-4-yl)-4H-benzo[b]isoxazolo[4,5-d]azepin-6(5H)-yl)benzonitrile] | 6.51
2 | < 6.00 | 6.00 | Cc1noc2c1-c1ccc(-c3ccc(N)nc3)cc1N(c1ccc(C#N)cc1)CC2CC(=O)N(C)C (stereo not drawn) [Compound 139, 2-(8-(6-aminopyridin-3-yl)-6-(4-cyanophenyl)-1-methyl-5,6-dihydro-4H-benzo[b]isoxazolo[4,5-d]azepin-4-yl)-N,N-dimethylacetamide] | < 5.40
